Reference: patent publication US10323037B2, “Aminopyridazinone compounds as protein kinase inhibitors” (Jiangsu Hengrui Medicine Co., Ltd., priority 2014, dated 2019)

tested on: TMD-8 cells; experiment: Cell proliferation assay (CellTiter-Glo), TMD-8; assay type: cell-based; details: Homo sapiens, TMD8, 120 h; 5-day treatment; read-out: TMD8 cells growth IC50
Procedure: Cell proliferation assay: TMD-8 and SU-DHL-1 cells were maintained at 37° C. in a humidified atmosphere with 5% CO2 in the recommended medium and serum concentrations. For cell proliferation assay, cells were seeded in 96-well pates at a density of 5,000 to 10,000 cells per well and cultured overnight at 37° C. in recommended medium supplemented with 5-10% FBS. On the next day, the test articles at various concentrations or vehicle control (0.5% DMSO) were added into cell culture. After 5-day treatment, the growth of cells was assayed by the CellTiter-Glo® Luminestceaent Cell Viability Assay (Promega). IC50 values were calculated using GraphPad Prism by plotting the logarithm of the concentration versus percent inhibition of cell growth as compared with the vehicle control.

Question: Which IC50 does the source give for `C=CC(=O)N1CCC[C@@H](n2c(Cl)c(-c3ccc(Oc4ccccc4)cc3)c3c(N)n[nH]c(=O)c32)C1` [Example 80, (R)-1-(1-acryloylpiperidin-3-yl)-4-amino-2-chloro-3-(4-phenoxyphenyl)-1H-pyrrolo[2,3-d]pyridazin-7(6H)-one] here?
Answer: Its IC50 is 10 to 1000 nM.

Question: With `CN(C)C/C=C/C(=O)N1CCC[C@H]1Cn1cc(-c2ccc(Oc3ccccc3)cc2)c2c(N)n[nH]c(=O)c21` [Example 41, 4-amino-1-[[(2S)-1-[(E)-4-(dimethylamino)but-2-enoyl]pyrrolidin-2-yl]methyl]-3-(4-phenoxyphenyl)-6H-pyrrolo[2,3-d]pyridazin-7-one] as the compound, how does the IC50 read?
Answer: The IC50 was 10 to 1000 nM.

Question: For `C=CC(=O)N1CC(n2cc(-c3ccc(Oc4ccccc4)cc3)c3c(N)n[nH]c(=O)c32)C1` [Example 5, 4-amino-3-(4-phenoxyphenyl)-1-(1-prop-2-enoylazetidin-3-yl)-6H-pyrrolo[2,3-d]pyridazin-7-one], which IC50 is on record?
Answer: Its IC50 is 10 to 1000 nM.

Question: Which IC50 does the source give for `C=CC(=O)N1CCC[C@H]1Cn1cc(-c2ccc(Oc3ccccc3)cc2)c2c(N)n[nH]c(=O)c21` [Example 6, 4-amino-3-(4-phenoxyphenyl)-1-[[(2S)-1-prop-2-enoylpyrrolidin-2-yl]methyl]-6H-pyrrolo[2,3-d]pyridazin-7-one] here?
Answer: Its IC50 is at most 10 nM.

Question: With `CN(C/C=C/C(=O)N1CCC[C@@H](n2cc(-c3ccc(Oc4ccccc4)cc3)c3c(N)n[nH]c(=O)c32)C1)C1CC1` [Example 29, 4-amino-1-[(3R)-1-[(E)-4-(cyclopropyl(methyl)amino)but-2-enoyl]-3-piperidyl]-3-(4-phenoxyphenyl)-6H-pyrrolo[2,3-d]pyridazin-7-one] as the compound, how does the IC50 read?
Answer: Its IC50 is at most 10 nM.

Question: Which IC50 does the source give for `C=CC(=O)N1CCCC(n2cc(-c3ccc(Oc4cccc(Cl)c4)cc3)c3c(N)n[nH]c(=O)c32)C1` (stereo not drawn) [Example 66, 1-(1-acryloylpiperidin-3-yl)-4-amino-3-(4-(3-chlorophenoxy)phenyl)-1H-pyrrolo[2,3-d]pyridazin-7(6H)-one] here?
Answer: Its IC50 is at most 10 nM.

Question: With `C=CC(=O)N1CCCC(n2cc(-c3ccc(OC)cc3)c3c(N)n[nH]c(=O)c32)C1` (stereo not drawn) [Example 51, 1-(1-acryloylpiperidin-3-yl)-4-amino-3-(4-methoxyphenyl)-1H-pyrrolo[2,3-d]pyridazin-7(6H)-one] as the compound, how does the IC50 read?
Answer: Its IC50 is 10 to 1000 nM.

Question: With `N#CCC(=O)N1CCC[C@@H](n2cc(-c3ccc(Oc4ccccc4)cc3)c3c(N)n[nH]c(=O)c32)C1` [Example 24, 3-[(3R)-3-[4-amino-7-oxo-3-(4-phenoxyphenyl)-6H-pyrrolo[2,3-d]pyridazin-1-yl]-1-piperidyl]-3-oxo-propanenitrile] as the compound, how does the IC50 read?
Answer: Its IC50 is 10 to 1000 nM.

Question: Which IC50 does the source give for `C=CC(=O)N1C[C@H](n2cc(-c3ccc(Oc4ccccc4)cc3)c3c(N)n[nH]c(=O)c32)CC(F)(F)C1` [Example 14, (R)-1-(1-acryloyl-5,5-difluoropiperidin-3-yl)-4-amino-3-(4-phenoxyphenyl)-1H-pyrrolo[2,3-d]pyridazin-7(6H)-one] here?
Answer: Its IC50 is at most 10 nM.

Question: How did the IC50 turn out when `C=CC(=O)N1CCC[C@@H](n2cc(-c3ccc(Oc4ccccc4)cc3)c3c(N)n[nH]c(=O)c32)C1` [Example 1, (R)-1-(1-acryloylpiperidin-3-yl)-4-amino-3-(4-phenoxyphenyl)-1H-pyrrolo[2,3-d]pyridazin-7(6H)-one] was run?
Answer: Its IC50 is at most 10 nM.

Question: For `C=CC(=O)N1CCC[C@@H](n2nc(-c3ccc(Oc4ccccc4)cc3)c3c(N)n[nH]c(=O)c32)C1` [Example 110, (R)-1-(1-acryloylpiperidin-3-yl)-4-amino-3-(4-phenoxyphenyl)-1H-pyrazolo[3,4-d]pyridazin-7(6H)-one], which IC50 is on record?
Answer: The IC50 was at most 10 nM.

Question: Which IC50 does the source give for `C=CC(=O)N1CCC[C@@H](n2cc(-c3ccc(Oc4ccc(Cl)c(Cl)c4)c(OC)c3)c3c(N)n[nH]c(=O)c32)C1` [Example 72, (R)-1-(1-acryloylpiperidin-3-yl)-4-amino-3-(4-(3,4-dichlorophenoxy)-3-methoxyphenyl)-1H-pyrrolo[2,3-d]pyridazin-7(6H)-one] here?
Answer: The IC50 was 10 to 1000 nM.

Question: `N#CN1CCC[C@@H](n2cc(-c3ccc(Oc4ccccc4)cc3)c3c(N)n[nH]c(=O)c32)C1` [Example 20, (R)-3-(4-amino-7-oxo-3-(4-phenoxyphenyl)-6,7-dihydro-1H-pyrrolo[2,3-d]pyridazin-1-yl)piperidine-1-carbonitrile] was tested. Which IC50 did it give?
Answer: The IC50 was at most 10 nM.

Question: Which IC50 does the source give for `N#C/C(=C\C1CC1)C(=O)N1CCC[C@@H](n2cc(-c3ccc(Oc4ccccc4)cc3)c3c(N)n[nH]c(=O)c32)C1` [Example 50, (E)-2-[(3R)-3-[4-amino-7-oxo-3-(4-phenoxyphenyl)-6H-pyrrolo[2,3-d]pyridazin-1-yl]piperidine-1-carbonyl]-3-cyclopropyl-prop-2-enenitrile] here?
Answer: The IC50 was 10 to 1000 nM.

Question: For `C=CC(=O)N1CCC[C@@H](n2cc(-c3ccc(Oc4c(F)cccc4Cl)cc3)c3c(N)n[nH]c(=O)c32)C1` [Example 78, (R)-1-(1-acryloylpiperidin-3-yl)-4-amino-3-(4-(2-chloro-6-fluorophenoxy)phenyl)-1H-pyrrolo[2,3-d]pyridazin-7(6H)-one], which IC50 is on record?
Answer: The IC50 was at most 10 nM.

Question: `CN(C)C/C=C/C(=O)N1CCC[C@@H](n2cc(-c3ccc(Oc4ccccc4F)cc3)c3c(N)n[nH]c(=O)c32)C1` [Example 57, 4-amino-1-[(3R)-1-[(E)-4-(dimethylamino)but-2-enoyl]-3-piperidyl]-3-[4-(2-fluorophenoxy)phenyl]-6H-pyrrolo[2,3-d]pyridazin-7-one] was tested. Which IC50 did it give?
Answer: The IC50 was at most 10 nM.

Question: Which IC50 does the source give for `C=CC(=O)Nc1cccc(-n2cc(-c3ccc(Oc4ccccc4F)cc3)c3c(N)n[nH]c(=O)c32)c1` [Example 91, N-(3-(4-amino-3-(4-(2-fluorophenoxy)phenyl)-7-oxo-6,7-dihydro-1H-pyrrolo[2,3-d]pyridazin-1-yl)phenyl)acrylamide] here?
Answer: The IC50 was at most 10 nM.

Question: With `N#CN1CCC[C@@H](n2cc(-c3ccc(Oc4c(F)cccc4F)cc3)c3c(N)n[nH]c(=O)c32)C1` [Example 84, (R)-3-(4-amino-3-(4-(2,6-difluorophenoxy)phenyl)-7-oxo-6,7-dihydro-1H-pyrrolo[2,3-d]pyridazin-1-yl)piperidine-1-carbonitrile] as the compound, how does the IC50 read?
Answer: Its IC50 is at most 10 nM.

Question: With `CN(C)C/C=C/C(=O)N1CCC[C@@H](n2cc(-c3ccc(Oc4ccccc4)cc3F)c3c(N)n[nH]c(=O)c32)C1` [Example 77, 4-amino-1-[(3R)-1-[(E)-4-(dimethylamino)but-2-enoyl]-3-piperidyl]-3-(2-fluoro-4-phenoxy-phenyl)-6H-pyrrolo[2,3-d]pyridazin-7-one] as the compound, how does the IC50 read?
Answer: Its IC50 is at most 10 nM.

Question: For `Nc1n[nH]c(=O)c2c1c(-c1ccc(Oc3ccccc3)cc1)cn2[C@@H]1CCCN(C(=O)C2CC2)C1` [Example 23, 4-amino-1-[(3R)-1-(cyclopropanecarbonyl)-3-piperidyl]-3-(4-phenoxyphenyl)-6H-pyrrolo[2,3-d]pyridazin-7-one], which IC50 is on record?
Answer: The IC50 was 10 to 1000 nM.

Question: With `C=CC(=O)Nc1ccc(-n2cc(-c3ccc(Oc4ccccc4)cc3)c3c(N)n[nH]c(=O)c32)cc1` [Example 90, N-(4-(4-amino-7-oxo-3-(4-phenoxyphenyl)-6,7-dihydro-1H-pyrrolo[2,3-d]pyridazin-1-yl)phenyl)acrylamide] as the compound, how does the IC50 read?
Answer: The IC50 was at most 10 nM.

Question: For `COc1ccc(-c2cn(C3CCCN(C(=O)/C=C/CN(C)C)C3)c3c(=O)[nH]nc(N)c23)cc1Cl` (stereo not drawn) [Example 54, 4-amino-3-(3-chloro-4-methoxy-phenyl)-1-[1-[(E)-4-(dimethylamino)but-2-enoyl]-3-piperidyl]-6H-pyrrolo[2,3-d]pyridazin-7-one], which IC50 is on record?
Answer: Its IC50 is 10 to 1000 nM.

Question: `CC#CC(=O)N1CC[C@@H](n2cc(-c3ccc(Oc4ccccc4F)cc3)c3c(N)n[nH]c(=O)c32)C1` [Example 95, (R)-4-amino-1-(1-(but-2-ynoyl)pyrrolidin-3-yl)-3-(4-(2-fluorophenoxy)phenyl)-1H-pyrrolo[2,3-d]pyridazin-7(6H)-one] was tested. Which IC50 did it give?
Answer: The IC50 was at most 10 nM.

Question: With `Nc1n[nH]c(=O)c2c1c(-c1ccc(Oc3ccccc3)cc1)cn2[C@@H]1CCCN(C(=O)CCl)C1` [Example 22, 4-amino-1-[(3R)-1-(2-chloroacetyl)-3-piperidyl]-3-(4-phenoxyphenyl)-6H-pyrrolo[2,3-d]pyridazin-7-one] as the compound, how does the IC50 read?
Answer: Its IC50 is 10 to 1000 nM.

Question: With `CN(C)C/C=C/C(=O)N1CCCC(n2cc(-c3ccc(Oc4ccc(Cl)cc4)cc3)c3c(N)n[nH]c(=O)c32)C1` (stereo not drawn) [Example 65, 4-amino-3-[4-(4-chlorophenoxy)phenyl]-1-[1-[(E)-4-(dimethylamino)but-2-enoyl]-3-piperidyl]-6H-pyrrolo[2,3-d]pyridazin-7-one] as the compound, how does the IC50 read?
Answer: The IC50 was 10 to 1000 nM.

Question: For `C=CC(=O)N1CCCC(n2cc(-c3ccc(Oc4ccc(Cl)cc4)cc3)c3c(N)n[nH]c(=O)c32)C1` (stereo not drawn) [Example 64, 1-(1-acryloylpiperidin-3-yl)-4-amino-3-(4-(4-chlorophenoxy)phenyl)-1H-pyrrolo[2,3-d]pyridazin-7(6H)-one], which IC50 is on record?
Answer: The IC50 was at most 10 nM.

Question: `CN(C)C/C=C/C(=O)N1C[C@H](n2cc(-c3ccc(Oc4ccccc4)cc3)c3c(N)n[nH]c(=O)c32)CC(F)(F)C1` [Example 49, 4-amino-1-[(3R)-1-[(E)-4-(dimethylamino)but-2-enoyl]-5,5-difluoro-3-piperidyl]-3-(4-phenoxyphenyl)-6H-pyrrolo[2,3-d]pyridazin-7-one] was tested. Which IC50 did it give?
Answer: Its IC50 is 10 to 1000 nM.

Question: For `CC#CC(=O)N1CC[C@@H](n2cc(-c3ccc(Oc4c(F)cccc4Cl)cc3)c3c(N)n[nH]c(=O)c32)C1` [Example 94, (R)-4-amino-1-(1-(but-2-ynoyl)pyrrolidin-3-yl)-3-(4-(2-chloro-6-fluorophenoxy)phenyl)-1H-pyrrolo[2,3-d]pyridazin-7(6H)-one], which IC50 is on record?
Answer: The IC50 was at most 10 nM.

Question: Which IC50 does the source give for `CCC(=O)N1CCC[C@@H](n2cc(-c3ccc(Oc4c(F)cccc4F)cc3)c3c(N)n[nH]c(=O)c32)C1` [Example 115, (R)-4-amino-3-(4-(2,6-difluorophenoxy)phenyl)-1-(1-propionylpiperidin-3-yl)-1H-pyrrolo[2,3-d]pyridazin-7(6H)-one] here?
Answer: Its IC50 is 10 to 1000 nM.

Question: Which IC50 does the source give for `C=CC(=O)N1CCC[C@@H](n2c(F)c(-c3ccc(Oc4ccccc4)cc3)c3c(N)n[nH]c(=O)c32)C1` [Example 81, (R)-1-(1-acryloylpiperidin-3-yl)-4-amino-2-fluoro-3-(4-phenoxyphenyl)-1H-pyrrolo[2,3-d]pyridazin-7(6H)-one] here?
Answer: Its IC50 is at most 10 nM.
